Article PMC9408991, “Antitumor Effects of a New Retinoate of the Fungal Cytotoxin Illudin M in Brain Tumor Models” (International Journal of Molecular Sciences, 2022)
Read-outs that look alike come from different tables or passages of the source.

What was measured:
[1] = tested on: NCH644^GFP+ glioma stem-like cells; assay: Ex vivo tumor growth assay on adult organotypic brain slice cultures; type: cell-based
Text: For further investigation of drug efficacy and selectivity, an ex vivo tumor growth assay employing organotypic brain slice cultures of adult murine brains were used. For this purpose, GFP-expressing NCH644 (NCH644^GFP+) glioma stem-like cells were transplanted onto these slices, and after 1 day, the treatment was started and renewed three times per week, similar to our previous studies. These cultures are suitable ex vivo models, which simulate original brain architecture and the presence of vessels, including angiogenesis and microvascular proliferation as well as specific homing of GBM cells toward those vessels, while requiring much fewer laboratory animals when compared with common in vivo animal drug tests.
Adult organotypic brain slice culture was carried out as described previously. Briefly, the brains from adult C57BL/6 J (Envigo, Horst, The Netherlands) were dissected, and dura mater was removed after the mice were euthanized. Subsequently, mouse brains were placed in warm (35–40 °C) 2% low-melting agarose (Carl Roth, Karlsruhe, Germany) and cut on a Vibratome VT1000 (Leica, Wetzlar, Germany) in 150 µm thick sections. These sections were placed on Milli-cell culture inserts (Merck KGaA, Darmstadt, Germany) and cultured in 6-well plates using FCS-free medium consisting of DMEM/F12 supplied with 1× B27 and 1× N2 supplement and 100 U/mL penicillin and 100 µg/mL streptomycin (all from Gibco, Darmstadt, Germany). One day later, multiple spheres were placed on the mouse brain slices. Adequate spheres were prepared by seeding 275.000 NCH644^GFP+ cells in a total volume of 5 mL in a T25 flask. One day after sphere transplantation, pictures were taken (day 0), and the treatment was started, which was refreshed 3 times per week. Tumor growth was evaluated using FIJI, after which pictures were taken regularly with a Nikon SMZ25 stereomicroscope equipped with a P2-SHR Plan Apo 2 × objective operated by NIS elements software. As the tumor size was normalized to the size on day 0, growth curves were created.

[2] = tested on: co-cultures of neuronal cells and U87 glioma cells; assay: Co-culture of primary neurons and U87 glioma cells; type: cell-based, mouse / human; details: 1 µM
Experimental: The selectivity of illudins 1 and 2 for U87 glioblastoma cells versus normal neuronal cells was evaluated by applying them to co-cultures of these cells serving as a surrogate brain tumor model. To this end, isolated murine primary neurons were grown on IBIDI dishes and after […] and the establishment of neuronal aggregates, the glioma U87 cells (~ 25,000 cells) were added to the neuronal culture. After 12 h, 1 and 2 were applied in 1 µM concentrations and the response of the different cells was monitored over a period between 15 and 48 h post incubation (Figure 8). In the control samples, the number of proliferating U87 cells increased with time and overgrew the diminishing number of differentiating neurons.
NE-4C cells derived from the anterior brain vesicles of p53-deficient 9-day-old mouse embryos were maintained in Minimum Essential Medium (MEM; Sigma Aldrich, Taufkirchen, Germany) supplemented with 5% fetal calf serum (FCS; Invitrogen-Gibco, Carlsbad, CA, USA), 4 mM glutamine (Sigma-Aldrich, Taufkirchen, Germany) and 40 ug/mL gentamycin (Chinoin, Budapest, Hungary). For maintenance, subconfluent cultures were regularly split by trypsinization (0.05 w/v% trypsin in PBS) into poly-L-lysine-coated Petri dishes. Primary astrocytes were isolated from whole brains of neonatal (P0-P3) mice, as described earlier. In brief, meninges were removed, and the tissue pieces were subjected to enzymatic dissociation, using 0.05% w/v trypsin and 0.05% w/v DNase for 10 min at room temperature. The cells were plated onto poly-L-lysine coated plastic surfaces and grown in MEM supplemented with 10% fetal calf serum, 4 mM glutamine and 40 ug/mL gentamycin. Primary neuronal cultures were prepared from embryonic (E15–E16) mouse (CD1) forebrains, as described earlier. In brief, cell suspensions were prepared by mechanical dissociation over a nylon mesh with a pore diameter of 40–42 μm. The cells were seeded at 10^5 cells/cm^2 density onto PLL-coated surfaces. The cultures were maintained in MEM supplemented with 5% FCS, 4 mM glutamine, 40 µg/mL gentamicin and 2.5 μg/mL amphotericin B (Sigma). In co-culture experiments, U87 glioma cells were seeded onto established neuronal cultures at DIV3 in a 25,000 cell/cm^2 density.
Figure 8 Co-culture of neuronal cells and U87 glioma cells in the absence or presence of 1 µM of 1 or 2. The neuronal aggregates are marked by arrowheads. Scale bar: 100 µm.

[3] = tested on: MZ-54 glioblastoma cells; assay: MTT cell viability assay, MZ-54 glioblastoma; type: cell-based; details: Homo sapiens, read-out: Inhibitory concentration IC50
Experimental: U251 (formerly known as U-373 MG; ECACC 09063001), Mz54 (CVCL_M406) human glioblastoma cell lines were cultured in DMEM+GlutaMax supplemented with 10% fetal bovine serum and 1% penicillin/streptomycin mixture. The human glioma cell line Mz54 was obtained from the Dept. of Neurosurgery, University Medical Centre, Johannes Gutenberg University Mainz, Germany, where this line was isolated from a recurrent grade IV glioblastoma. U251 and Mz54 cells were used in passages between 10 and 25 after re-authentication and 40 to 55 after culture establishment, respectively. Only mycoplasma-free cell cultures were used.
[…] Afterward, 10 µL of a 5 mg/mL MTT solution in PBS was added to the cells for 3 h at 37 °C. Then, the spheres were centrifuged shortly to collect the cells on the bottom of the plate, and the medium was removed by careful pipetting for both adherently grown and floating sphere GBM cultures. Afterward, formazan was dissolved in a mixture (24:1 v:v) of isopropanol and 1 M HCl using 100 µL for adherent cells by shaking the plates for at least 20 min. The absorbance of formazan (λ = 570 nm), and background (λ = 630 nm) was measured with a microplate reader (Tecan Spark, Tecan Deutschland GmbH, Crailsheim, Germany).

[4] = tested on: U87 glioma cells; assay: Apoptosis of U87 glioma cells (calcein/Annexin V-Cy3); type: cell-based, human; details: between 1 and 10 µM, 48 h
Experimental: Astroglia cells grown on poly-L-lysine-coated glass cover slips were fixed with 4% paraformaldehyde in PBS for 20 min at room temperature and then permeabilized with Triton X-100 (0.1% v/v in PBS; 5 min). Nonspecific antibodies were blocked by incubation with 3% FBS in PBS (room temperature, 1 h). α-GFAP antibody (rabbit, DAKO) was used in a dilution of 1:2000 and was visualized by anti-rabbit IgG Alexa 594 (1:1000). DAPI (4′,6-diamidino-2-phenylindole) was used for nuclei staining. Fluorescence images were captured manually on a Zeiss Axiovert 200 M microscope fitted with 20- to 60-fold zoom and a Zeiss AxioCam MRm digital camera. Further applied antibodies were tubulin III (Sigma T5076), used at a dilution of 1:1000, and Annexin V. Cy3.18 (Sigma A4963).
Figure 6 U87 glioma cells undergo apoptosis upon 48 h treatment with 10 µM of 2. Cells in the early stages of apoptosis show calcein (green)/Annexin V-Cy3 (red) double labeling. Scale bars: 50 µm; 20 µm for inserts.

[5] = 5 µM, treatment renewed three times per week

CC1=C(/C=C/C(C)=C/C=C/C(C)=C/C(=O)O[C@@H]2C3=C(C)C4(CC4)[C@@](C)(O)C(=O)C3=CC2(C)C)C(C)(C)CCC1 [Compound 2, illudin M retinoate]
antitumor activity (tumor growth normalized to day 0) [1, 5]: showed antitumor activity | antitumor activity (tumor growth normalized to day 0) ([1]; 0.1 and 0.5 µM): significantly reduced | toxicity in the tumor-free regions of the brain slices ([1]; organotypic brain slices): no signs of toxicity | response of neurons and U87 cells in co-culture ([2]; 15 h after treatment): healthy and compact neuronal aggregates | response of neurons and U87 cells in co-culture ([2]; 48 h after treatment): many neurons were still present | IC50 ([3]; MZ-54, 48 h exposure): 5480 ± 1200 nM | apoptosis of U87 glioma cells [4]: undergoing rapid apoptosis

CC1=C2C(=CC(C)(C)[C@@H]2O)C(=O)[C@](C)(O)C12CC2 [Compound 1, illudin M]
antitumor activity (tumor growth normalized to day 0) [1, 5]: showed antitumor activity | response of neurons and U87 cells in co-culture ([2]; 15 h after treatment): considerable cellular fragmentation | response of neurons and U87 cells in co-culture ([2]; 48 h after treatment): merely cell debris | IC50 ([3]; MZ-54, 24 h exposure): 550 ± 160 nM | IC50 ([3]; MZ-54, 48 h exposure): 60 ± 10 nM
